Earlier results, collected in patent publication US20260306436A1, “TRETINOIN LIPOSOME FORMULATIONS AND USES THEREOF TO TREAT CANCER” (Highfield BioPharmaceuticals Corporation, priority 2023, published 2026).

Key:
BSA = settings: stated for the release system with BSA
[1] = background statement
[2] = background statement; remark: listed apart in the source

Protein binding rate (BSA): 95%
Water solubility [1]: very low
Plasma half-life [2]: short
Structure (SMILES): CC1=C(/C=C/C(C)=C/C=C/C(C)=C/C(=O)O)C(C)(C)CCC1 [all-trans retinoic acid]
